Source: ChEMBL document CHEMBL1158866, “Bioactive labdane diterpenoids from Renealmia alpinia collected in the Suriname rainforest” (J Nat Prod, 1997)
Converted amounts (≈) assume the structure as drawn. The source made the active and inactive calls. The rule behind the calls is not given here.

Assays:
M109 = test: Cytotoxicity against mouse M109 cells; format: functional, cell-based
Saccharomyces cerevisiae = test: Antimicrobial activity against yeast Sc7; format: functional
[1] = tested on: Meyerozyma guilliermondii; test: Antimicrobial activity against sCandida guilliermondii; format: functional
KB = test: Cytotoxicity against human KB cells; format: functional; conditions: read-out: ED50 (the source's name)
Candida tropicalis = test: Antimicrobial activity against Candida tropicalis; format: functional

Row | Compound | IC50 (M109) [mg/L] | IC12 (Saccharomyces cerevisiae) [µg/mL] | MIC [1] [mg/L] | Activity (M109) | EC50 (KB) [mg/L] | MIC (Candida tropicalis) [mg/L]
1 | C=C1CC[C@H]2C(C)(C)CCC[C@]2(C)[C@H]1[C@@H]1C=C(C=O)C[C@H](O)O1 | 2.6 (≈ 8.16 µM) | 3 | – | – | – | –
2 | C=C1CC[C@H]2C(C)(C)CCC[C@]2(C)[C@H]1C/C=C(/C=O)CC=O | – | 46 | 6.25 (≈ 20.7 µM) | inactive | 40 (≈ 132 µM) | 6.25 (≈ 20.7 µM)
3 | C=C1CC[C@H]2C(C)(C)CCC[C@]2(C)[C@H]1C/C=C(/C=O)CC(=O)O | – | 200 | – | inactive | – | –
